What all share (assay type): biochemical
In assay [1] the target is T1, xyn10A (Penicillium oxalicum, UniProt U3N115).
T1 construct: mature enzyme, GH10 catalytic domain without CBM; pPICZalphaA alpha-factor secretion, 6xHis tag, Pichia pastoris, Ni-NTA
Kind of assay: TLC of hydrolysis products. The following applies: 1 mg/ml substrate, 12 h; 50 mM acetate pH 4.0, 40 °C (Figure 7 legend) or optimal pH, 45 °C (Methods).

Assay [2] has as its target T2, xyn11B (Penicillium oxalicum, UniProt E7EF85).
T2 construct: gene xynB; mature enzyme, GH11 catalytic domain, Ser/Thr linker and CBM1; pPICZalphaA alpha-factor secretion, 6xHis tag, Pichia pastoris, Ni-NTA
The experiment in a line: TLC of hydrolysis products. The following applies: 1 mg/ml substrate, 12 h; 50 mM acetate pH 4.0, 40 °C (Figure 7 legend) or optimal pH, 45 °C (Methods).

The target of assay [3] is T3, xyn11A (Penicillium oxalicum, UniProt U3MZH8).
T3 construct: GH11 catalytic domain without CBM; 23 kDa by SDS-PAGE; pPICZalphaA alpha-factor secretion, 6xHis tag, Pichia pastoris, Ni-NTA
Kind of assay: TLC of hydrolysis products. The following applies: 1 mg/ml substrate, 12 h; 50 mM acetate pH 4.0, 40 °C (Figure 7 legend) or optimal pH, 45 °C (Methods).

Assay [4] concerns the target T4, xyn10B (Penicillium oxalicum, UniProt U3MZ77).
T4 construct: mature enzyme, GH10 catalytic domain, Ser/Thr linker and CBM1; pPICZalphaA alpha-factor secretion, 6xHis tag, Pichia pastoris, Ni-NTA
T4 sequence (U3MZ77 23-410): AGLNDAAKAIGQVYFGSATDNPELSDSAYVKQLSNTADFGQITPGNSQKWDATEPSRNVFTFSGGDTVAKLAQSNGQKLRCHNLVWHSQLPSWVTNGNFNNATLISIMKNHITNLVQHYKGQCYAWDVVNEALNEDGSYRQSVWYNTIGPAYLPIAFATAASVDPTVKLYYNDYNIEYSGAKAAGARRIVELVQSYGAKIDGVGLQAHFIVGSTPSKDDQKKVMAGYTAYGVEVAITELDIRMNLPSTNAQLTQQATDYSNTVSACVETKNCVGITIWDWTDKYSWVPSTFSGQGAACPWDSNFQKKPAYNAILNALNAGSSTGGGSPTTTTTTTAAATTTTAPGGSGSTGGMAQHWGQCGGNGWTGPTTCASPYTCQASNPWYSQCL
Kind of assay: p-nitrophenyl substrate hydrolysis (specific activity). Conditions: 10 mM substrate; optimal temperature, pH 5.0.

This note sets out measurements from article PMC4519791, “Functional diversity and properties of multiple xylanases from Penicillium oxalicum GZ-2” (Scientific Reports, 2015).

T1 sequence (U3N115 20-330): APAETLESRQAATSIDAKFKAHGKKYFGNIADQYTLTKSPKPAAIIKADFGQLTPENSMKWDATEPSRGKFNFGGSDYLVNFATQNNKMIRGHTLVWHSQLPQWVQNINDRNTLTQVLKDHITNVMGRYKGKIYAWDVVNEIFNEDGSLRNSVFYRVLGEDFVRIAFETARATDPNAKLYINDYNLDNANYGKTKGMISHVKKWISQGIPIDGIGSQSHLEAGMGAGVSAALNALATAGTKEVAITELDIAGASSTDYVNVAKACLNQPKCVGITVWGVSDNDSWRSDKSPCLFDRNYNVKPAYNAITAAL
T3 sequence (U3MZH8 17-211): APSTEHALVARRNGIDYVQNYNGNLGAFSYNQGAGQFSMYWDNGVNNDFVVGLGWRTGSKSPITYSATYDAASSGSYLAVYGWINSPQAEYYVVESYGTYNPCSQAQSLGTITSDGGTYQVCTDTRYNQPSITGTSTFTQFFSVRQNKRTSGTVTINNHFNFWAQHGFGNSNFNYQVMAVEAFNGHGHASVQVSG
T2 sequence (E7EF85 20-310): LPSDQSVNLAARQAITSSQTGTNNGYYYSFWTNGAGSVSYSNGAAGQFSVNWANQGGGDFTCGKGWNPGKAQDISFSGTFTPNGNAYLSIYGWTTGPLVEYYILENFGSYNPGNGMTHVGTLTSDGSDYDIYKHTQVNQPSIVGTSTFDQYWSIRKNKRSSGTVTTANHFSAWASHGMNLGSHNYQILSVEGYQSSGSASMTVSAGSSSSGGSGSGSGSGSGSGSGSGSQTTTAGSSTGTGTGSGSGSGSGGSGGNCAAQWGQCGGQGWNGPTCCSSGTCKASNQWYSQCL

For the molecule `OC1OC[C@@H](O[C@@H]2OC[C@@H](O[C@@H]3OC[C@@H](O)[C@H](O)[C@H]3O)[C@H](O)[C@H]2O)[C@H](O)[C@H]1O` (some centres unmarked) [X3, xylotriose], the “TLC of hydrolysis products” value in assay [1] is “the two GH10 enzymes rapidly degraded X3, X4, X5 and X6”.
Take `OC1OC[C@@H](O[C@@H]2OC[C@@H](O[C@@H]3OC[C@@H](O[C@@H]4OC[C@@H](O)[C@H](O)[C@H]4O)[C@H](O)[C@H]3O)[C@H](O)[C@H]2O)[C@H](O)[C@H]1O` (some centres unmarked) [X4, xylotetraose]: the “TLC of hydrolysis products” value in assay [2] is “hydrolytic products obtained with GH11 xylanase (xyn11B) was similar to that of xyn11A”; in assay [3], “X4, X5 and X6 were hydrolyzed to X2 and X3 through xyn11A”.
For `OC1CO[C@@H](OC2CO[C@@H](OC3CO[C@@H](OC4CO[C@@H](OC5CO[C@@H](OC6COC(O)C(O)C6O)C(O)C5O)C(O)C4O)C(O)C3O)C(O)C2O)C(O)C1O` (some centres unmarked) [X6, xylohexaose], the “TLC of hydrolysis products” value in assay [2] is “hydrolytic products obtained with GH11 xylanase (xyn11B) was similar to that of xyn11A”; in assay [1] it was “the two GH10 enzymes rapidly degraded X3, X4, X5 and X6”; in assay [3] it was “X4, X5 and X6 were hydrolyzed to X2 and X3 through xyn11A”.
Turning to `O=[N+]([O-])c1ccc(O[C@@H]2O[C@H](CO)[C@@H](O[C@@H]3O[C@H](CO)[C@@H](O)[C@H](O)[C@H]3O)[C@H](O)[C@H]2O)cc1` [pNPC, p-nitrophenyl β-D-cellobioside], the “p-nitrophenyl substrate hydrolysis (specific activity)” value in assay [4] was “Although xyn10B degraded pNPX and pNPC, the other three enzymes were not active”.
On the same count and under the same terms, the result for `O=[N+]([O-])c1ccc(O[C@@H]2OC[C@@H](O)[C@H](O)[C@H]2O)cc1` [pNPX, p-nitrophenyl-β-D-xylopyranoside] reads “Although xyn10B degraded pNPX and pNPC, the other three enzymes were not active”.
